Tests used:
[1] = Pharmacokinetics of bendamustine dosed to rats, composition with SBECD and PI2080 (Example 12); type: in vivo, Female Sprague-Dawley rats; conditions: i.v. 10 mg/kg
Protocol: Control: 2.5 mg/mL bendamustine hydrochloride, 4.25 mg/mL of mannitol in 0.9% NaCl; dose of 10 mg/kg
Inventive Composition: 2.5 mg/mL bendamustine hydrochloride, 40% w/w sodium sulfobutyl ether β-cyclodextrin, 1% PI2080, 4.3 mg/g mannitol in water (prepared according to the procedure set forth in Example 9); dose of 10 mg/kg.
Female Sprague-Dawley rats (250-350 g). The animals were kept three per cage with an air filter cover under light (12 h light/dark cycle, light on at 06 h00) and controlled temperature 22° C.+/−1° C. All manipulations with the animals were performed under a sterilized laminar hood. The animals had ad libitum access to Purina mouse chow and water. The animals were fasted overnight and anesthetized, before dosing. Dosing and Sampling: Inventive bendamustine composition and control were administered intravenously to rats in tail vein. Blood samples were collected after time intervals of 5, 15, 30, 45 min, 1, 1.5, 2 and 3 hrs post-injection, The rats were anesthetised by general inhalation of isoflurane. The blood samples were collected from the jugular vein with heparinized tube and kept on ice. The blood was immediately centrifuged, and plasma was separated. The plasma samples were immediately extracted. Sample Extraction and Analysis: The plasma samples 0.100 mL were transferred to plastic tubes. The samples were extracted with 0.400 mL of 100 mM HCl in acetonitrile while being shaken vigorously for 30 seconds. The samples were centrifuged at 10000 RPM for 5 minutes. The supernatant was separated. The samples were frozen in dry ice and kept at −80° C. until HPLC analysis. The aliquots of 20 microliters were injected into HPLC for analysis. The HPLC Conditions: C18 reversed phase column 50×4.6 mm, Symmetry/Shield 3.5 micrometer Column temperature 30° C. Flow rate 1.5 mL/min Injection volume 20 microliters Fluorescence detection at wavelengths: excitation 327 nm, emission 420 nm Mobile phase: Buffer A: 5% acetonitrile 0.1% TFA Buffer B: 90% acetonitrile 0.1% TFA Run time: 10 min The improved pharmacokinetic profiles of Bendamustine for tested inventive composition versus the control is shown in Table 2 below.

H460 cells = test: Cytotoxicity of bendamustine composition comprising SBECD and LMWP, WST-1 (Example 24); type: cell-based; conditions: Homo sapiens, NCI-H460, 72 h, read-out: drug cytotoxicity (WST-1), Table 8
Protocol: (§1) RPMI8226, H69, MDA-MB-231, and H460 cells were maintained in appropriate medium, containing 10% FBS and antibiotics. 24 h after plating, bendamustine, and bendamustine formulated in SBECD/LMWP (40 mg/ml BM in 20% SBECD, 1% LMWP) were added in different concentrations to cell cultures and cells were grown for three days. The drug cytotoxicity was evaluated using WST-1 procedure.

H69 cells = test: as above; type: cell-based; conditions: Homo sapiens, NCI-H69, 72 h, read-out: drug cytotoxicity (WST-1), Table 8
Protocol: as §1

MDA-MB-231 cells = test: as above; type: cell-based; conditions: Homo sapiens, MDA-MB-231, 72 h, read-out: drug cytotoxicity (WST-1), Table 8
Protocol: as §1

RPMI8226 cells = test: as above; type: cell-based; conditions: Homo sapiens, RPMI-8226, 72 h, read-out: drug cytotoxicity (WST-1), Table 8
Protocol: as §1

[2] = tested on: Lewis Lung carcinoma 3LL cells; test: Murine experimental lung metastasis model (Example 26); type: in vivo, C57Bl/6 mice; conditions: 50 mg/kg
Protocol: Female Charles Rivers C57Bl/6 mice, aged 5 to 6 weeks, were purchased from Charles River Canada Inc. The animals were kept 5 per cage with an air filter cover under light (12 light/dark cycle, light on at 6H00) and temperature (22°±1° C.)-controlled environment. All manipulations of animals were performed under a sterilized laminar hood. The animals had ad libitum access to Purina mouse chow (Pro Lab PMH 4018, Trademark of Agway, Syracuse, N.Y.) and water. These animal studies were conducted according to the “Guidelines for Care and Use of Experimental Animals”. Tumor Cell Culture:
Lewis Lung carcinoma 3LL cells were cultured in the appropriated culture medium. The cells were harvested in their logarithmic growth phase for the preparation of tumor implantation.
Lewis Lung carcinoma 3LL cells (2.0 to 5.0×10^5 cells in 200 ul PBS) were implanted intravenously by tail vein to establish experimental lung metastasis tumor models.
The treatments were performed on day after tumor implantation. The animals were dosed with the following dosing solutions.
non-formulated bendamustine (BM), (50 mg/kg)
Bendamustine (50 mg/kg) in 20% SBECD, 1% LMWP
Metastasis formation was evaluated by counting the numbers of metastasis spots on the lung surface. Routine metastasis examination were done for all organs at the end of the study.

Q: Which results are given for Cn1c(CCCC(=O)O)nc2cc(N(CCCl)CCCl)ccc21 [BM, 4-[5-[bis(2-chloroethyl)amino]-1-methylbenzimidazol-2-yl]butanoic acid]?
A: concentration at 0.08 h ([1]; female, Sprague-Dawley, rat, plasma, iv, 0.08 h post injection, read-out: Concentration of bendamustine in rat plasma, Mean (SEM)): 6040 ng/mL; concentration at 0.25 h ([1]; female, Sprague-Dawley, rat, plasma, iv, 0.25 h post injection, read-out: Concentration of bendamustine in rat plasma, Mean (SEM)): 2430 ng/mL; concentration at 0.5 h ([1]; female, Sprague-Dawley, rat, plasma, iv, 0.5 h post injection, read-out: Concentration of bendamustine in rat plasma, Mean (SEM)): 520 ng/mL; concentration at 0.75 h ([1]; female, Sprague-Dawley, rat, plasma, iv, 0.75 h post injection, read-out: Concentration of bendamustine in rat plasma, Mean (SEM)): 145 ng/mL; concentration at 1.5 h ([1]; female, Sprague-Dawley, rat, plasma, iv, 1.5 h post injection, read-out: Concentration of bendamustine in rat plasma, Mean (SEM)): 8 ng/mL; concentration at 2 h ([1]; female, Sprague-Dawley, rat, plasma, iv, 2 h post injection, read-out: Concentration of bendamustine in rat plasma, Mean (SEM)): 2 ng/mL; Concentration of bendamustine in rat plasma, Mean (SEM) ([1]; 1 h post injection): 48 (11) ng/mL; Concentration of bendamustine in rat plasma, Mean (SEM) ([1]; 3 h post injection): 0 (1) ng/mL; IC50 (H460 cells): 601 µM; IC50 (H69 cells): 254 µM; IC50 (MDA-MB-231 cells): 600 µM; IC50 (RPMI8226 cells): 117 µM; Lung metastasis number ([2]; 3LL i.v. implanted, C57Bl/6 mice): 56.1 ± 9.5; Inhibition on metastasis formation vs control ([2]; 3LL lung metastasis, mice): 14.4%; Inhibition on metastasis formation vs not formulated BM ([2]; 3LL lung metastasis, mice): 0%

Source: patent publication US8703964B2, “Bendamustine cyclopolysaccharide compositions” (Supratek Pharma Inc., priority 2009, dated 2014)
